Values of other authors, collected in patent US20030180373A1, “Method for viral inactivation of hydro-alcoholic solutions” (priority 2000, published 2003).

System: viruses of Norwalk and Norwalk type
Conditions: disinfectants conventionally used; ethanol at a concentration of 75%

SMILES | Effect of the disinfectant on the virus
[Na+].[O-]Cl [bleach] | capable of destroying the virus
CCO [ethanol] | no effect
O=CCCCC=O [glutaraldehyde] | capable of destroying the virus
